Results as given in patent publication US20160045498A1, “METHODS OF TREATING DISEASES CHARACTERIZED BY EXCESSIVE WNT SIGNALLING” (THE WALTER AND ELIZA HALL INSTITUTE OF MEDICAL RESEARCH, priority 2013, published 2016).

Test system: small intestine
Experiment: Irradiation induced intestinal regeneration
Format: in vivo
Conditions: gp130^F/F mice, AZD1480 30 mg/kg, 72 h after γ-irradiation (14 Gy)
Procedure: a Immunohistochemical analysis for the proliferation marker PCNA on sections of small intestines of wild-type (Wt), gp130^F/F (F/F), Stat3^+/−, gp130^F/F;Stat3^+/− (F/F Stat3^+/−), gp130^ΔStat/ΔStat (Δ/Δ) and gp130^ΔStat/+ (Δ/+) as well as of Wt and F/F mice treated with Jak2 kinase inhibitor AZD1480 (Jak2i; 30 mg/kg) 72 h after exposure to γ-irradiation. Scale bar=100 μm.
b Enumeration of intact crypts in cross sections from the proximal small intestine stained for PCNA obtained 72 h after exposure of mice of the indicated genotype to γ-irradiation. (*p≦0.04; n=3 mice).
Mice were irradiated with a single dose of 14 Gy of γ-irradiation (0.414 Gy/min) to determine regenerative potential of the small intestine as described (Ashton et al., 2010).

For `Cc1cc(Nc2nc(N[C@@H](C)c3ncc(F)cn3)ncc2Cl)n[nH]1` [AZD1480], the intestinal regeneration was “impaired”.
